The record followed here is ChEMBL document CHEMBL1921771, “Structure-activity relationships of ganoderma acids from Ganoderma lucidum as aldose reductase inhibitors” (Bioorg Med Chem Lett, 2011).

The test concerns the target Aldo-keto reductase family 1 member B1 (Homo sapiens, UniProt P15121). The experiment in a line: Inhibition of recombinant human aldose reductase using dl-glyceraldehyde as substrate after 10 mins by spectrophotometry.
As to `COC(=O)C(C)CC(=O)C[C@@H](C)[C@H]1C[C@H](O)[C@@]2(C)C3=C(C(=O)C[C@]12C)[C@@]1(C)CCC(=O)C(C)(C)[C@@H]1C[C@@H]3O` (some centres not stated) [METHYL GANODERATE A], the IC50 was over 189 µM.

`COC(=O)C(C)CC(=O)C[C@@H](C)[C@H]1CC(=O)[C@@]2(C)C3=C([C@@H](O)C[C@]12C)[C@@]1(C)CCC(=O)C(C)(C)[C@@H]1C[C@@H]3O` (some centres not stated): the IC50 is over 189 µM.

Regarding `CC(CC(=O)C[C@@H](C)[C@H]1C[C@H](O)[C@@]2(C)C3=C(C(=O)C[C@]12C)[C@@]1(C)CC[C@H](O)C(C)(C)[C@@H]1CC3)C(=O)O` (some centres not stated) [GANOLUCIDIC ACID B], the IC50 is over 199 µM.

Regarding `CC(CC(=O)C[C@@H](C)[C@H]1C[C@H](O)[C@@]2(C)C3=C(C(=O)C[C@]12C)[C@@]1(C)CCC(=O)C(C)(C)[C@@H]1CC3=O)C(=O)O` (some centres not stated) [GANODERIC ACID J], the half-maximal inhibitory concentration (IC50) is over 194 µM.

For the compound `C[C@H](CC(=O)C[C@@H](C)[C@H]1C[C@H](O)[C@@]2(C)C3=C(C(=O)C[C@]12C)[C@@]1(C)CC[C@H](O)C(C)(C)[C@@H]1C[C@@H]3O)C(=O)O` [GANODERIC ACID C2], the 50% inhibitory concentration (IC50) is 43.8 µM.

For `CC(CC(=O)C[C@@H](C)[C@H]1CC(=O)[C@@]2(C)C3=C(C(=O)[C@@H](O)[C@]12C)[C@@]1(C)CC[C@H](O)C(C)(C)[C@@H]1C[C@@H]3O)C(=O)O` (some centres not stated) [GANODERIC ACID G], the half-maximal inhibitory concentration (IC50) is over 188 µM.

In the case of `CC(CC(=O)C[C@@H](C)[C@H]1CC(=O)[C@@]2(C)C3=C(C(=O)[C@@H](O)[C@]12C)[C@@]1(C)CC[C@H](O)C(C)(C)[C@@H]1CC3=O)C(=O)O` (some centres not stated) [GANODERIC ACID C6], the concentration for half-maximal inhibition (IC50) is over 193 µM.

Take `C/C(=C\C(=O)CC(C)C(=O)O)[C@H]1C[C@H](O)[C@@]2(C)C3=C(C(=O)C[C@]12C)[C@@]1(C)CCC(=O)C(C)(C)[C@@H]1C[C@@H]3O` (some centres not stated) [GANODERENIC ACID A]: the IC50 amounted to 119 µM.

For the compound `CC(=O)O[C@@H]1C(=O)C2=C([C@@H](O)C[C@H]3C(C)(C)[C@@H](O)CC[C@]23C)[C@]2(C)C(=O)C[C@H]([C@H](C)CC(=O)CC(C)C(=O)O)[C@@]12C` (some centres not stated) [GANODERIC ACID K], the 50% inhibitory concentration (IC50) is over 174 µM.

Consider `C[C@H](CC(=O)C[C@@H](C)[C@H]1CC(=O)[C@@]2(C)C3=C(C(=O)C[C@]12C)[C@@]1(C)CCC(=O)C(C)(C)[C@@H]1C[C@@H]3O)C(=O)O` [GANODERIC ACID C1], for which the half-inhibitory concentration (IC50) is over 194 µM.

In the case of `C[C@H](CC(=O)C[C@@H](C)[C@H]1C[C@H](O)[C@@]2(C)C3=C(C(=O)C[C@]12C)[C@@]1(C)CCC(=O)C(C)(C)[C@@H]1C[C@@H]3O)C(=O)O` [GANODERIC ACID A], the IC50 is over 193 µM.

Turning to `COC(=O)[C@H](C)CC(=O)C[C@@H](C)[C@H]1C[C@H](O)[C@@]2(C)C3=C(C(=O)C[C@]12C)[C@@]1(C)CC[C@H](O)C(C)(C)[C@@H]1C[C@@H]3O`, the IC50 is over 184 µM.

As for `CC(CC(=O)C[C@@H](C)[C@H]1CC(=O)[C@@]2(C)C3=C(C(=O)C[C@]12C)[C@@]1(C)CCC(=O)C(C)(C)[C@@H]1C[C@@H]3O)C(=O)O` (some centres not stated) [GANODERIC ACID D], the IC50 is over 195 µM.

For `COC(=O)C(C)CC(=O)/C=C(\C)[C@H]1C[C@H](O)[C@@]2(C)C3=C(C(=O)C[C@]12C)[C@@]1(C)CCC(=O)C(C)(C)[C@@H]1C[C@@H]3O` (some centres not stated) [METHYL GANODERENATE A], the IC50 was over 184 µM.

Take `CC(CC(=O)C[C@@H](C)[C@H]1CC(=O)[C@@]2(C)C3=C([C@@H](O)C[C@]12C)[C@@]1(C)CCC(=O)C(C)(C)[C@@H]1C[C@@H]3O)C(=O)O` (some centres not stated) [GANODERIC ACID DF]: the IC50 was determined as 22.8 µM.

On to `CC(=O)O[C@@H]1C(=O)C2=C(C(=O)C[C@H]3C(C)(C)[C@@H](O)CC[C@]23C)[C@]2(C)C(=O)C[C@H]([C@H](C)CC(=O)CC(C)C(=O)O)[C@@]12C` (some centres not stated) [GANODERIC ACID H], for which the IC50 is over 175 µM.

Turning to `CC(CC(=O)C[C@@H](C)[C@H]1CC(=O)[C@@]2(C)C3=C(C(=O)C[C@]12C)[C@@]1(C)CC[C@H](O)C(C)(C)[C@@H]1C[C@@H]3O)C(=O)O` (some centres not stated) [GANODERIC ACID B], the IC50 was over 193 µM.

What is called IC50 is the point on the concentration scale where inhibition reaches its midpoint.
